The assay has as its target GLR3.4-S1S2 (Arabidopsis thaliana, UniProt Q8GXJ4, DEL602-708). Kind of assay: crystal structure. To be noted: endogenous ligand from expression, none added. It is filed as binding.

The structures appear in SMILES notation.

Crystal structure data for one compound are collected here from PMC8349882 (Molecular cell, 2021).

Chain of GLR3.4-S1S2 (Q8GXJ4 492-601, stated change not applied): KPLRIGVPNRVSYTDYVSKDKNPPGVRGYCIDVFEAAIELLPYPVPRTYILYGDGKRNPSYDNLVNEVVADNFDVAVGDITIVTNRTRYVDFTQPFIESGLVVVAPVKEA
Chain of GLR3.4-S1S2 (Q8GXJ4 709-842, stated change not applied): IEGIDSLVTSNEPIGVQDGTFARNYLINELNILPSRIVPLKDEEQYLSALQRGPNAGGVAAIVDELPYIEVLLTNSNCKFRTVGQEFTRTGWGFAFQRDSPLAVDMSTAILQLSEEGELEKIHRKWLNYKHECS

In the case of `N[C@@H](CO)C(=O)O` [serine], the crystal structure result is given as “The serine-bound LBD structure was solved without adding the ligand to the protein”.
